In ChEMBL document CHEMBL4393714, “Multi-targeting protein-protein interaction inhibitors: Evolution of macrocyclic ligands with embedded carbohydrates (MECs) to improve selectivity” (Eur J Med Chem, 2019):

Legend:
[1] = molecular target: Galanin receptor type 2 (Homo sapiens) (UniProt O43603); experiment: Displacement of [125I]galanin from human recombinant GAL2 receptor at 10 uM measured after 120 mins by scintillation counter method relative to control
[2] = molecular target: 5-hydroxytryptamine receptor 1A (Homo sapiens) (UniProt P08908); experiment: Displacement of [3H]-OH-DPAT from human recombinant 5-HT1A receptor at 10 uM measured after 60 mins by scintillation counter method relative to control
[3] = molecular target: Kappa-type opioid receptor (Homo sapiens) (UniProt P41145); experiment: Displacement of [3H] U69593 from human kappa opioid receptor at 10 uM measured after 60 mins by scintillation counter method relative to control
Chain of Kappa-type opioid receptor (Homo sapiens) (P41145 whole entry): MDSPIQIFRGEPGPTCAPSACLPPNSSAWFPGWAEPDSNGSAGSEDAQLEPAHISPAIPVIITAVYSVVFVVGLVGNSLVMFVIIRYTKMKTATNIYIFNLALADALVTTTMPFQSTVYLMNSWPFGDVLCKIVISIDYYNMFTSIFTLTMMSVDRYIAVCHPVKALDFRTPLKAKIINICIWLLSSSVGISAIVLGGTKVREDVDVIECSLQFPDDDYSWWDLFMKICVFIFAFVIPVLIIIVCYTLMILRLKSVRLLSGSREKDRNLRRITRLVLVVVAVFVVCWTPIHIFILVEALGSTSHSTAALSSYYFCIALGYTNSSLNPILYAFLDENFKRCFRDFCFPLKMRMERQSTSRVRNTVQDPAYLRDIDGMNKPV

[4] = molecular target: Beta-2 adrenergic receptor (Homo sapiens) (UniProt P07550); experiment: Agonist activity at human beta 2 adreno receptor at 10 uM relative to control
[5] = molecular target: 5-hydroxytryptamine receptor 2C (Homo sapiens, UniProt P28335); experiment: Displacement of [3H] mesulergine from human recombinant 5-HT2C receptor measured after 120 mins by scintillation counter method
Chain of 5-hydroxytryptamine receptor 2C (P28335 whole entry): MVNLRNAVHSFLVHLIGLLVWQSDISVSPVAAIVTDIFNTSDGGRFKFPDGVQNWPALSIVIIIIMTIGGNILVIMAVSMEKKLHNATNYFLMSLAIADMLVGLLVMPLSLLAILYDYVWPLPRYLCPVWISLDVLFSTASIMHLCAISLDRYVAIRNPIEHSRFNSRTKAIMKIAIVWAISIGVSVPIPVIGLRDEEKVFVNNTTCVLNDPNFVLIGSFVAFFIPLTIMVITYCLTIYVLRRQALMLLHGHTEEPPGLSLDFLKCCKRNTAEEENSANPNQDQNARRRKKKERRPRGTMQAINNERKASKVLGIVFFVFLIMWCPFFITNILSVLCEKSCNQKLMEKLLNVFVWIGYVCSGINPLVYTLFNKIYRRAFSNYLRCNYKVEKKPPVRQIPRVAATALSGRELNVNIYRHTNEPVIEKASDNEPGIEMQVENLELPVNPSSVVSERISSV

[6] = molecular target: Melanocortin receptor 4 (Homo sapiens) (UniProt P32245); experiment: Displacement of [125I]NDP-alpha-MSH from human recombinant MC 4 receptor at 10 uM measured after 120 mins by scintillation counter method relative to control
Chain of Melanocortin receptor 4 (Homo sapiens) (P32245 whole entry): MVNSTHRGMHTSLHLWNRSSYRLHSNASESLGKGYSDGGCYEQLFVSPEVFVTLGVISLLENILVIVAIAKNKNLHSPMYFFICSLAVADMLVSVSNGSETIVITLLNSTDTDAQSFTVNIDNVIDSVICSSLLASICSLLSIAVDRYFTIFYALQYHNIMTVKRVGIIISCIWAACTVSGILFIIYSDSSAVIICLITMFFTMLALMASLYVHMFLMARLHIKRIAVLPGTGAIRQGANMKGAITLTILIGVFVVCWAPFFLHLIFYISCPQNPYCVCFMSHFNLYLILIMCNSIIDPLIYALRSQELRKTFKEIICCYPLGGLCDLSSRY

[7] = molecular target: Cholecystokinin receptor type A (Homo sapiens) (UniProt P32238); experiment: Displacement of [125I]CCK-8s from human recombinant CCK1 receptor at 10 uM measured after 60 mins by scintillation counter method relative to control
Chain of Cholecystokinin receptor type A (Homo sapiens) (P32238 whole entry): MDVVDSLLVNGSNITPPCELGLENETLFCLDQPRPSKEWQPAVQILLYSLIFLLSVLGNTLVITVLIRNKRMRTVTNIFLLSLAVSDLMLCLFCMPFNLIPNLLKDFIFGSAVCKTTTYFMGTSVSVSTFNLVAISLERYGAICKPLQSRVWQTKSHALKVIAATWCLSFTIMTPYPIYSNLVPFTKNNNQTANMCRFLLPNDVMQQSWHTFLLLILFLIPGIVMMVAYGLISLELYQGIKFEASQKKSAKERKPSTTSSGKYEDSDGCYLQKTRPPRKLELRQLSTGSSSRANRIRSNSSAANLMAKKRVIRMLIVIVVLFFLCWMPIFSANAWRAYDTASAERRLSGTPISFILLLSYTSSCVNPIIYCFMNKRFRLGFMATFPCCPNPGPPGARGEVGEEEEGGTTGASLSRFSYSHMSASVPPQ

[8] = molecular target: Adenosine receptor A3 (Homo sapiens) (UniProt P0DMS8); experiment: Displacement of [125I] AB-MECA from human recombinant A3 receptor at 10 uM measured after 120 mins by scintillation counter method relative to control
[9] = molecular target: Prostaglandin E2 receptor EP4 subtype (Homo sapiens) (UniProt P35408); experiment: Displacement of [3H]PGE2 from human recombinant EP4 receptor at 10 uM measured after 120 mins by scintillation counter method relative to control
[10] = molecular target: 5-hydroxytryptamine receptor 7 (Homo sapiens) (UniProt P34969); experiment: Displacement of [3H]LSD from human recombinant 5-HT7 receptor at 10 uM measured after 120 mins by scintillation counter method relative to control
[11] = molecular target: D(1A) dopamine receptor (Homo sapiens) (UniProt P21728); experiment: Displacement of [3H]SCH23390 from human recombinant D1 receptor at 10 uM measured after 60 mins by scintillation counter method relative to control
Chain of D(1A) dopamine receptor (Homo sapiens) (P21728 whole entry): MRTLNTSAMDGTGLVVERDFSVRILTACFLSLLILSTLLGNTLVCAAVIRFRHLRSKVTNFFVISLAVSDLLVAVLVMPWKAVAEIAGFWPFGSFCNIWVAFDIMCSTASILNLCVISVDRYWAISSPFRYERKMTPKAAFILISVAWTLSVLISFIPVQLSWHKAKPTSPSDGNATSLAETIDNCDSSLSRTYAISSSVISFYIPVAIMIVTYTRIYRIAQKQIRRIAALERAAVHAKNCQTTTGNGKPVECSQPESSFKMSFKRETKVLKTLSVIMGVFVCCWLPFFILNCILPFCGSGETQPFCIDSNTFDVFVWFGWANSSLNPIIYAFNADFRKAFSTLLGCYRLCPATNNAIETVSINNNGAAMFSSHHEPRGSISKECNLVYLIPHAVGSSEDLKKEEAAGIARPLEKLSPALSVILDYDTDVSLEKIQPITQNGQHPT

[12] = molecular target: T1, Sodium-dependent serotonin transporter (Homo sapiens, UniProt P31645); experiment: Displacement of [3H] imipramine from human recombinant 5-HT transporter measured after 60 mins by scintillation counter method
Target sequence in this assay (P31645 whole entry): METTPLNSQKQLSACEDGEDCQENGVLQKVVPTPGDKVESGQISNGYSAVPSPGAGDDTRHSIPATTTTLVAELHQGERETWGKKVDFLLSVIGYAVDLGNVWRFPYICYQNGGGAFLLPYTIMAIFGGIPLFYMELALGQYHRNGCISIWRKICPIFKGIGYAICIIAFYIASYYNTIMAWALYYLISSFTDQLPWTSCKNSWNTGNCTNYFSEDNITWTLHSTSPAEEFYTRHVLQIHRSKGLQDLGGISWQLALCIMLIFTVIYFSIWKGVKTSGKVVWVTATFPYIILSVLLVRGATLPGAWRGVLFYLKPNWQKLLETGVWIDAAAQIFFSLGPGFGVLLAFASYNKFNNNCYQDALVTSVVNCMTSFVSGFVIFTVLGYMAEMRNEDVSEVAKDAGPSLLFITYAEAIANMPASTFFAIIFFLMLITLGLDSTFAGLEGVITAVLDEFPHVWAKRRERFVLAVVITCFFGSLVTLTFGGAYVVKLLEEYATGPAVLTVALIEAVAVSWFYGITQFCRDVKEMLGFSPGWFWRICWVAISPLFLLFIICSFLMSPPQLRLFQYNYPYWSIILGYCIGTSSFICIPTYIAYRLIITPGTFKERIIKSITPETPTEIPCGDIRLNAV

[13] = molecular target: Muscarinic acetylcholine receptor M1 (Homo sapiens) (UniProt P11229); experiment: Displacement of [3H]pirenzepine from human recombinant muscarinic 1 receptor at 10 uM measured after 60 mins by scintillation counter method relative to control
Chain of Muscarinic acetylcholine receptor M1 (Homo sapiens) (P11229 whole entry): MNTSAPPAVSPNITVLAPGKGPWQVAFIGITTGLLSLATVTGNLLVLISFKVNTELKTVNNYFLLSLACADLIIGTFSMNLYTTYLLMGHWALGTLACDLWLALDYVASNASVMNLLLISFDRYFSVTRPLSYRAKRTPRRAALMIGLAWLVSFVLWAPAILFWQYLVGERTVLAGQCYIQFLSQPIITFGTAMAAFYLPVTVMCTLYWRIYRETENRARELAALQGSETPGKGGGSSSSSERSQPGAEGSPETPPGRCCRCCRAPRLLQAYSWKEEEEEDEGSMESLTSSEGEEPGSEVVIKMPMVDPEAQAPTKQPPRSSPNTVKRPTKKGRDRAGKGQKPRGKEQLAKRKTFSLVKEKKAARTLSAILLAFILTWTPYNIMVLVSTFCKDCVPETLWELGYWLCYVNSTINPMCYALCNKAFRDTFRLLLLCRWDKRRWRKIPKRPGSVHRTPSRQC

Rattus norvegicus = organism: Rattus norvegicus; experiment: Displacement of [3H] batrachotoxinin from rat sodium channel site 2 at 10 uM measured after 60 mins by scintillation counter method relative to control
[14] = molecular target: Adrenergic receptor alpha-2 (Rattus norvegicus) (UniProt P22086+P19328+P22909); experiment: Displacement of [3H] RX 821002 from rat alpha2 adreno receptor at 10 uM measured after 60 mins by scintillation counter method relative to control; type: protein assay
[15] = molecular target: Muscarinic acetylcholine receptor M2 (Homo sapiens) (UniProt P08172); experiment: Displacement of [3H]AF-DX 384 from human recombinant muscarinic 2 receptor at 10 uM measured after 60 mins by scintillation counter method relative to control
Chain of Muscarinic acetylcholine receptor M2 (Homo sapiens) (P08172 whole entry): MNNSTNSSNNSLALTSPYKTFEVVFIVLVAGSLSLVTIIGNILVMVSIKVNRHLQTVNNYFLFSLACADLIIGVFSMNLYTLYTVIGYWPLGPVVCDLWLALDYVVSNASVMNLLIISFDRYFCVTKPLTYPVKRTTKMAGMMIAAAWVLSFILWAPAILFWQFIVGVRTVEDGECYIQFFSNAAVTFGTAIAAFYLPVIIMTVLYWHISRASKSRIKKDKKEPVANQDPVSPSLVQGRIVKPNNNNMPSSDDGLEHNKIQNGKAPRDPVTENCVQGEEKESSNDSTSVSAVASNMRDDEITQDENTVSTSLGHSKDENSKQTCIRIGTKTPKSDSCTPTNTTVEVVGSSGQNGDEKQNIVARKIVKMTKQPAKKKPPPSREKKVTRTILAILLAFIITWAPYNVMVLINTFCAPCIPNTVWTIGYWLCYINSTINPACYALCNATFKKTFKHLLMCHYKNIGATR

[16] = molecular target: Sodium-dependent noradrenaline transporter (Homo sapiens) (UniProt P23975); experiment: Displacement of [3H] nisoxetine from human recombinant norepinephrine transporter at 10 uM measured after 120 mins by scintillation counter method relative to control
[17] = molecular target: Neurotensin receptor type 1 (Homo sapiens) (UniProt P30989); experiment: Displacement of [125I]Tyr3-neurotensin from human recombinant neurotensin receptor type1 at 10 uM measured after 60 mins by scintillation counter method relative to control
[18] = molecular target: 5-hydroxytryptamine receptor 5A (Homo sapiens) (UniProt P47898); experiment: Displacement of [3H]LSD from human recombinant 5-HT5A receptor at 10 uM measured after 120 mins by scintillation counter method relative to control
[19] = molecular target: B2 bradykinin receptor (Homo sapiens) (UniProt P30411); experiment: Displacement of [3H]bradykinin from human recombinant B2 receptor at 10 uM measured after 60 mins by scintillation counter method relative to control
[20] = molecular target: Beta-1 adrenergic receptor (Homo sapiens) (UniProt P08588); experiment: Displacement of [3H] (-)CGP 12177 from human recombinant beta1 adreno receptor at 10 uM measured after 60 mins by scintillation counter method relative to control
[21] = molecular target: 5-hydroxytryptamine receptor 3A (Homo sapiens) (UniProt P46098); experiment: Displacement of [3H] BRL 43694 from human 5-HT3 at 10 uM measured after 120 mins by scintillation counter method relative to control
[22] = molecular target: Neuromedin-K receptor (Homo sapiens) (UniProt P29371); experiment: Displacement of [3H] HSR 142801 from human recombinant neurokinin beta receptor at 10 uM measured after 120 mins by scintillation counter method
Chain of Neuromedin-K receptor (Homo sapiens) (P29371 whole entry): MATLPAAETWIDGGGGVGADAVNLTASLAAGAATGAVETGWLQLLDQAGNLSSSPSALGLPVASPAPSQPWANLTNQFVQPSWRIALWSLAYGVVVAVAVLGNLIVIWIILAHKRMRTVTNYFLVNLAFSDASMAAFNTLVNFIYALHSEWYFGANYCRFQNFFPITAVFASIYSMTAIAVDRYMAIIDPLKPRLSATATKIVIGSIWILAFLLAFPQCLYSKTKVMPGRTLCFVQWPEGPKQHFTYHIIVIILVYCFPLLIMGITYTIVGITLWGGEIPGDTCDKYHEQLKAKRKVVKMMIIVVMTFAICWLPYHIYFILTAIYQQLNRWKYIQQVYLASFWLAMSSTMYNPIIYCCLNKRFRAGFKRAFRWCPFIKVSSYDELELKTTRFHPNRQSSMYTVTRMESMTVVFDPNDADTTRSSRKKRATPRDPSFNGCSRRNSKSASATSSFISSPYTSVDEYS

[23] = molecular target: Vasopressin V1a receptor (Homo sapiens) (UniProt P37288); experiment: Displacement of [3H] AVP from human recombinant vasopressin V1A receptor at 10 uM measured after 60 mins by scintillation counter method relative to control
[24] = molecular target: 5-hydroxytryptamine receptor 2A (Homo sapiens, UniProt P28223); experiment: Displacement of [3H] ketanserin from human recombinant 5-HT2A receptor at 10 uM measured after 60 mins by scintillation counter method relative to control
[25] = molecular target: T1, Sodium-dependent serotonin transporter; experiment: Displacement of [3H] imipramine from human recombinant 5-HT transporter at 10 uM measured after 60 mins by scintillation counter method relative to control
Target sequence in this assay (P31645 whole entry, looked up): as the sequence (P31645 whole entry) above

[26] = molecular target: GABA-A receptor; anion channel (Rattus norvegicus) (UniProt O09028+P15431+P18506+P18508+P19969+P20236+P23574+P23576+P28471+P28473+P30191+P62813+P63079+P63138+Q91ZM7+Q9ES14); experiment: Displacement of [3H]flunitrazepam from rat GABAA ion channel at 10 uM measured after 120 mins by scintillation counter method relative to control; type: protein-complex assay

Structure (SMILES): CC(C)CCO[C@@H]1[C@H]2OC(C)(C)O[C@H]2[C@H]2Cn3cc(nn3)COCCCCCCN(CCc3ccc4ccccc4c3)CC[C@H]1O2
- Activity [1]: 17.4%
- inhibition [2]: 90.2%
- inhibition [3]: 77.9%
- inhibition [4]: 3.9%
- IC50 [5]: > 100 µM
- Ki [5]: > 100 µM
- inhibition [6]: 34%
- inhibition [7]: 61.4%
- inhibition [8]: 87.1%
- inhibition [9]: 29.9%
- inhibition [10]: 22.7%
- inhibition [11]: 21.5%
- IC50 [12]: 7.4 µM
- Ki [12]: 3.4 µM
- inhibition [13]: 31%
- inhibition (Rattus norvegicus): 102%
- inhibition [14]: 5%
- inhibition [15]: 36.2%
- inhibition [16]: 55.7%
- Activity [17]: 15.7%
- inhibition [18]: 89%
- Activity [19]: 9.4%
- inhibition [20]: 10.6%
- inhibition [21]: 25.2%
- inhibition [22]: 48.3%
- inhibition [23]: 19%
- inhibition [24]: 93.2%
- inhibition [25]: 68.3%
- Activity [26]: 5.1%
